Inconclusive results and toxic doses are left out.
Test system: mice, LPC-1 plasma cell tumor ip, median survival T/C
Experiment: NCI In Vivo Anticancer Drug Screen. Data for tumor model Lieberman Plasma Cell No. 1 (LPC-1) (intraperitoneal) in unknown mice
Details: endpoint: median survival time, higher = longer survival
Description: The antitumor activity of compounds was measured in mice bearing transplantable tumors. Survival or tumor size were measured and the results are expressed as the measurement made in the treated group (T) divided by the measurement made in the vehicle treated control group (C). The tumor model used in this assay is Lieberman Plasma Cell No. 1 (LPC-1) (intraperitoneal) in unknown mice

With `Nc1cc2ncccc2c2ncccc12` the T/C (dose: 37.5 mg/kg/injection, schedule: Q01DX028 (sc), vehicle: steriod suspending solution) was 104 % of control, the T/C (dose: 75.0 mg/kg/injection, schedule: Q01DX028 (sc), vehicle: steriod suspending solution) was 104 % of control and the T/C (dose: 150.0 mg/kg/injection, schedule: Q01DX028 (sc), vehicle: steriod suspending solution) was 112 % of control.

`O=NN(CCCl)C(=O)NC1CCCCC1` was tested, and the T/C (dose: 33.0 mg/kg/injection, schedule: Q01DX028 (sc), vehicle: carboxymethylcellulose (CMC)) was 111 % of control and the T/C (dose: 75.0 mg/kg/injection, schedule: Q01DX028 (sc), vehicle: carboxymethylcellulose (CMC)) was 102 % of control.

In the case of `COc1ccc2c(c1)C(C)=CC(C)(C)N2`, the T/C (dose: 200.0 mg/kg/injection, schedule: Q01DX028 (sc), vehicle: steriod suspending solution) was 110 % of control and the T/C (dose: 400.0 mg/kg/injection, schedule: Q01DX028 (sc), vehicle: steriod suspending solution) was 154 % of control.

In the case of `CN[C@H]1CCc2cc(OC)c(OC)c(OC)c2-c2ccc(OC)c(=O)cc21`, the T/C (dose: 0.62 mg/kg/injection, schedule: Q01DX015 (sc), vehicle: saline) was 102 % of control, the T/C (dose: 1.25 mg/kg/injection, schedule: Q01DX015 (sc), vehicle: saline) was 102 % of control and the T/C (dose: 1.25 mg/kg/injection, schedule: Q01DX028 (sc), vehicle: saline) was 107 % of control. The T/C (dose: 2.5 mg/kg/injection, schedule: Q01DX028 (sc), vehicle: saline) was 107 % of control.

— PubChem BioAssay AID344 (DTP/NCI, 2004)
